Assays:
Candida albicans = experiment: in vivo activity against acute systemic candidosis in immune-normal mice; conditions: dose protecting 50% of mice on day 2 post-infection; mice infected i.v. with Candida albicans; oral dosing 1, 4 and 24 hours post-infection
From the text: The in vivo evaluation of the compounds can be carried out at a series of dose levels by intraperitoneal or intravenous injection, or by oral administration, to mice or rats which are inoculated with, e.g. a strain of Candida albicans, Aspergillus fumigatus or Cryptococcus neoformans. Activity may be based on the number of survivors from a treated group of mice after the death of an untreated group of mice.
For Candida spp. infection models the dose level at which the compound provides 50% protection against the lethal effect of the infection (PD50) is also assessed.
The Table below illustrates the in vivo activity against acute systemic candidosis in immune-normal mice for a selection of the compounds of the invention.
Mice were infected intravenously with Candida albicans in order to establish a systemic infection (all untreated control mice died by 2 days post-infection). Compound efficacy was assessed on the basis of survival after oral dosing (0.1-5 mg/kg; 1, 4 and 24 hours post-infection) and was measured as the dose protecting 50% of mice on day 2 post-infection.

[1] = 7-day toxicity study in rats; format: in vivo; conditions: 30 mg/kg p.o., o.d., 7 days

SMILES	PD50 (Candida albicans) [mg/kg]	adverse effects in 7-day toxicity study [1]
C[C@@H](c1ccc(/C=C/n2ccnc2)cc1)[C@](O)(Cn1cncn1)c1ccc(F)cc1F (relative stereo) [Example 5, Trans-(2R,3S/2S,3R)-1-(1,2,4-triazol-1-yl)-2-(2,4-difluorophenyl)-3-{4-[2-(imidazol-1-yl)ethenyl]phenyl}butan-2-ol]	0.18	–
C[C@@H](c1ccc(/C=C/C(C)(C)O)cn1)[C@](O)(Cn1cncn1)c1ccc(F)cc1F (relative stereo) [Example 9, Trans-(2R,3S/2S,3R)-1-(1,2,4-triazol-1-yl)-2-(2,4-difluorophenyl)-3-[5-{3-hydroxy-3-methylbut-1-en-1-yl}pyrid-2-yl]butan-2-ol]	0.18	–
C[C@@H](c1ccc(/C=C/c2c[nH]nn2)cn1)[C@](O)(Cn1cncn1)c1ccc(F)cc1F (relative stereo) [Example 10, Trans-(2R,3S/2S,3R)-1-(1,2,4-triazol-1-yl)-2-(2,4-difluorophenyl)-3-{5-[2-(1,2,3-triazol-4-yl)ethenyl]pyrid-2-yl}butan-2-ol]	0.32	–
C[C@@H](c1ccc(/C=C/c2ccnn2C)cc1)[C@](O)(Cn1cncn1)c1ccc(F)cc1F [Example 1, Trans-(2R,3S)-1-(1,2,4-triazol-1-yl)-2-(2,4-difluorophenyl)-3-{4-[2-(1methylpyrazol-5-yl)ethenyl]phenyl}butan-2-ol]	<0.10	no adverse effects

Source: US6376526B1, “Triazole antifungal agents” (Pfizer Inc., priority 1996, dated 2002)
